This is an account of results in patent publication US11911436B2, “Amphiphilic peptide chaperones and methods of use” (priority 2021, dated 2024).

Data set [1] has as its system ARPE-19 cells. Put plainly: Peptide toxicity to cells, cell viability imaging. In kind it is cell-based. To be noted: increasing peptide concentrations. As for the experimental part:
Cell viability imaging was performed on cells with increasing concentrations of Myr-CPAMC, with fluorescent staining used to indicate dead cells (FIG. 9A).

For data set [2], the system named is ARPE-19 cells. Put plainly: Sodium iodate cytotoxicity, cell viability imaging. In kind it is cell-based. To be noted: 7.5 mM sodium iodate, 24 hours. As for the experimental part:
Sodium iodate is a chemical that induces oxidative stress and cell death. The ability of CPPRAMC peptide to block the cytotoxic action of sodium iodate was investigated. ARPE-19 cells cultured on a 96-well plate were treated with 7.5 mM sodium iodate and/or CPPRAMC peptide for 24 hours. At the end of the incubation, cell viability imaging was done using the EarlyTox cell integrity kit (Molecular Devices, Sunnyvale, Calif.) (FIG. 6A). The percentage of dead cells in each sample was calculated from the live/dead cell imaging data using the Softmax Pro software (FIG. 6B).
The ability of Myr-CPAMC peptide to block the cytotoxic action of sodium iodate was also investigated. Authenticated ARPE-19 cells cultured on a 96-well plate were treated with 7.5 mM sodium iodate and/or Myr-CPAMC peptide for 24 hours. At the end of the incubation, cell viability imaging was done using the EarlyTox cell integrity kit (Molecular Devices, Sunnyvale, Calif.) (FIG. 7A). The percentage of dead cells in each sample was calculated from the live/dead cell imaging data using the Softmax Pro software (FIG. 7B).

Data set [3] relates to human red blood cells. Description: Melittin-induced hemolysis of human RBC. Type of data set: cell-based. The settings on record: 2% human RBC, room temperature 30 min, OD 540 nm. As for the experimental part: Hemolysis of human red blood cells with melittin was measured with varying concentrations of CPAMC (FIG. 3). To 0.3 mL of 2% human RBC (red blood cell) suspension was added 2 μM melittin and/or peptides taken in 0.7 mL of PBS. The tubes were incubated at room temperature for 30 min, centrifuged, and the OD of the supernatant was measured at 540 nm. PBS and PBS containing 0.1% TritonX-100 served as negative and positive control, respectively.
The protective effect of Myr-CPAMC peptide of human red blood cells (RBC) from melittin-induced hemolysis was also examined. To 0.3 mL of 2% human RBC suspension was added to melittin and/or peptide taken in 0.7 mL of PBS. The tubes were incubated at room temperature for 30 min, centrifuged (FIG. 5A) and the OD of the supernatant was measured at 540 nm. PBS and PBS containing 0.1% TritonX-100 served as negative and positive control, respectively.

Data set [4] has as its system ARPE-19 cells, hiPSC-NSC cultures, and NSC-derived neurons.
In data set [5] the target is Proteinase K (Parengyodontium album, UniProt P06873). Description: Proteinase K incubation, HPLC profiles. Type of data set: in vitro ADME. The settings on record: 100 μg peptide, 10 μg Proteinase K, overnight.
Data set [6] has as its system ARPE-19 cells, hiPSC-NSC cultures, and NSC-derived neurons. Description: Peptide entry into cells (fluorescent label). To be noted: fluorescently labeled peptide.
In data set [7] the test system is wild-type C. elegans (N2). Put plainly: C. elegans N2 lifespan assay at 20° C. with peptide feeding. In kind it is in vivo. To be noted: N2 worms. As to the method:
A schematic of an assay of C. elegans N2 lifespan at 20° C. is shown (FIG. 10A). This involved peptide treatment (50 μg) with E. coli OP50 as a food source. Plates were changed every second day with 50 μg fresh peptide and OP50. Scoring of survival was done every day to the last day of survival. 50 mM FUdR was added in experimental plates between D1 and D5 to prevent progeny production.

In data set [8] the test system is C. elegans wild-type (N2 strain). Description: Paraquat (PQ)-induced oxidative stress survival. To be noted: five-day old N2 worms, 50 μg peptide 24 hours, 50 mM PQ. Type of data set: in vivo. As for the experimental part: Five-day old N2 worms were pretreated with 50 μg peptide for 24 hours and subjected to 50 mM PQ. The survival of the worms was monitored every hour under a microscope until the end of survival. […] The median survival value (50% survival) in CPPRAMC, CPAMC, and CP-SC (control) peptides corresponds to 9.6 h, 8.9 h and 5.9 h, respectively, as compared to vehicle control (5.5 h) (FIG. 14).

Data set [9] relates to C. elegans (N2 strain). Description: Thermotolerance assay, continuous heat stress at 35° C. Type of data set: in vivo. The settings on record: N2 worms. As for the experimental part: The lifespan of wild type C. elegans with and without peptide at a restrictive temperature was measured.
A schematic representation of the thermotolerance assay used is shown (FIG. 11A). 24 hours of 50 μg peptide treatment at 20° C. of a synchronized population of wild type C. elegans was followed by a continuous heat stress at 35° C. Worms were scored every two hours for 24 hours for survival.

The test system of data set [10] is CL4176 C. elegans. Put plainly: CL4176 Aβ-induced paralysis and survival assay. Type of data set: in vivo. To be noted: CL4176 worms. As to the method: CL4176 C. elegans is a temperature sensitive strain. Worms are maintained at 15° C. and shifted to increased temperature to cause Aβ-induced paralysis in adults. This has been used as a C. elegans model of Alzheimer's disease.
A scheme of a paralysis assay with CL4176 worms is shown (FIG. 13A). Peptide treatment began on CL4176 embryos and continued throughout the experiment. After 2 days at 15° C., the temperature was increased to the restrictive temperature of 25° C. Worms were scored for survival and paralysis.
Example images of paralyzed and non-paralyzed worms are shown (FIG. 13C).

In data set [11] the test system is human primary lens epithelial (HLE-1°) cells. Description: Melittin cytotoxicity, cell viability imaging. The settings on record: 1 μM melittin, 45 min. In kind it is cell-based. As to the method:
The ability of CPAMC peptide to block the cytotoxic action of melittin on human primary lens epithelial (HLE-1°) cells was investigated. Cell viability imaging was performed with dead cells identified by fluorescent staining. HLE-1° cells cultured on a 96-well plate were treated with 1 μM melittin and/or different concentrations of CPAMC peptide for 45 min. At the end of the incubation, cell viability imaging was done using the EarlyTox cell integrity kit (Molecular Devices, Sunnyvale, Calif.) (FIG. 4A). The percentage of dead cells in each sample was calculated from the live/dead cell imaging data using the Softmax Pro software (FIG. 4B).

Data set [12] relates to ARPE-19 cells. Put plainly: Sodium iodate-induced oxidative stress, DCFH-DA staining. Type of data set: cell-based. To be noted: 7.5 mM sodium iodate, 24 hrs. As for the experimental part: The ability of CPPRAMC and CPAMC to suppress sodium iodate-induced oxidative stress in ARPE-19 cells was also assessed. ARPE-19 cells seeded on a 96-well plate were treated with 7.5 mM of sodium iodate and peptides in 100 μl of serum-free DMEM/F12 media for 24 hrs. The cells were then stained with 10 μM DCFH-DA for 30 min at 37° C. in the dark and the cells were observed under the EVOS FL Auto2 imaging system (Thermo Fisher Scientific, Waltham, Mass., USA) with 10× magnification.

For data set [13], the system named is CL2006 C. elegans. Description: CL2006 lifespan at 20° C. (paralysis and death model). In kind it is in vivo. The settings on record: CL2006 worms, 50 μg peptide. As for the experimental part: CL2006 C. elegans were used as a paralysis and death model. Worms are maintained at 15° C., with adult onset paralysis induced at 20° C.
50 μg CPAMC and CPPRAMC peptide or controls were added to CL2006 worms, and the fraction left alive over time at the restrictive temperature of 20° C. was quantified (FIG. 12). […] (FIG. 12).

Data set [14] deals with HEK293 IL-6 reporter cells. Put plainly: IL-6 signaling, STAT3-stimulated SEAP reporter. To be noted: human recombinant IL-6 and peptides, 1 hr. Type of data set: cell-based. As for the experimental part:
HEK293 IL-6 reporter cells were treated with human recombinant IL-6 and the peptides for 1 hr. The STAT3-stimulated SEAP activity in the culture supernatant was measured using QUANTI-Blue solution (InvivoGen) (FIG. 19B).

Data set [15] concerns C. elegans (N2) worms. Put plainly: Juglone (JG)-induced oxidative stress survival. Type of data set: in vivo. The settings on record: N2 worms at day 5, 50 μg peptide 24 h, 50 μM JG. As for the experimental part: N2 worms at day 5 pretreated for 24 h with 50 μg CPAMC or CP-SC (control) and subjected to 50 μM JG. Survival was checked every hour under a microscope until the end of survival. The median survival value in CPAMC and CP-SC (control) peptides corresponds to 7.3 h and 5.9 h, respectively, compared to vehicle control (4.9 h) (FIG. 15).

Where two headings read alike, the source gives them in different places. Marks after values point to notes of the source that are not given here. Square brackets hold non-standard residues; d marks the D form. Peptide text beside a SMILES is read from it. * marks the point of attachment. Myristoyl = CCCCCCCCCCCCCC(=O)*; dNMeL = CN[C@H](CC(C)C)C(=O)O; TMR = tetramethylrhodamine

Chain of Proteinase K (P06873 106-384, species assumed): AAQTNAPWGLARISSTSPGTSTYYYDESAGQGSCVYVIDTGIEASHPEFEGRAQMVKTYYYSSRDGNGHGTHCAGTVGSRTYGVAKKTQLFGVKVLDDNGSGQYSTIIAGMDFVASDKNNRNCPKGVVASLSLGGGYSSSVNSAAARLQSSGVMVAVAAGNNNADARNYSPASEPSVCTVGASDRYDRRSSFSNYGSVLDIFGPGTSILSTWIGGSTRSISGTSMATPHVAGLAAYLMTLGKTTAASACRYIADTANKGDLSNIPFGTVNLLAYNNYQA

On to `CCCCCCCCCCCCCC(=O)N[C@@H](CCCCN)C(=O)N[C@@H](CC(C)C)C(=O)N[C@@H](Cc1ccccc1)C(=O)N[C@H](C(=O)N[C@H](C(=O)N[C@@H](Cc1ccccc1)C(=O)N[C@@H](CC(C)C)C(=O)N[C@H](C(=O)N[C@@H](Cc1c[nH]cn1)C(=O)N[C@@H](Cc1ccccc1)C(=O)N[C@@H](CO)C(=O)N1CCC[C@H]1C(=O)NCC(=O)N[C@@H](CCCNC(=N)N)C(=O)N[C@@H](CC(=O)O)C(=O)N[C@@H](CCC(=O)O)C(=O)N[C@@H](CC(=O)O)C(=O)N[C@@H](CCCCN)C(=O)N[C@@H](CC(=O)O)C(=O)N[C@@H](CCC(=O)O)C(=O)N[C@@H](CCCCN)C(N)=O)C(C)C)[C@@H](C)CC)C(C)C` [Myr-CPAMC] (Myristoyl-KLFVIFLVHFSPGRDEDKDEK-NH2), for which the “toxicity of peptide to cells” value in data set [1] is “non-toxic to cells”. The “percentage of dead cells with sodium iodate and peptide” value in data set [2] is given as “protects ARPE-19 cells from sodium iodate-induced cytotoxicity”. For the same compound, in [3], the “hemolysis by melittin in presence of peptide” value is recorded as “protects human red blood cells (RBC) from melittin-induced hemolysis”.
Take “Myristoyl-{K(TMR)}LFVIFLVHFSPGRDEDKDEK-NH2 (Myristoyl-K(TMR)LFVIFLVHFSPGRDEDKDEK-NH2) [Myr-(TMR)-CPAMC]”: the “toxicity of peptide to cells” value in [1] is on record as “not toxic to cells”. Further, in data set [4], the “entry of peptide into cells” value is “can enter into ARPE-19 cells at different concentrations”.
Turning to `CC[C@@H](C)[C@@H](NC(=O)[C@H](NC(=O)[C@@H](Cc1ccccc1)NC(=O)[C@@H](CC(C)C)NC)C(C)C)C(=O)N[C@H](Cc1ccccc1)C(=O)N[C@H](CC(C)C)C(=O)N[C@@H](C(=O)N[C@H](Cc1c[nH]cn1)C(=O)N[C@H](Cc1ccccc1)C(=O)N[C@H](CO)C(=O)N1CCC[C@@H]1C(=O)NCC(=O)N[C@H](CCCNC(=N)N)C(=O)N[C@H](CC(=O)O)C(=O)N[C@H](CCC(=O)O)C(=O)N[C@H](CC(=O)O)C(=O)N[C@H](CCCCN)C(=O)N[C@H](CC(=O)O)C(=O)N[C@H](CCC(=O)O)C(=O)N[C@H](CCCCN)C(N)=O)C(C)C` [CPPRAMC, CH3-lfviflvhfspgrdedkdek-NH2] (H-[dNMeL][dF][dV][dI][dF][dL][dV][dH][dF][dS][dP]G[dR][dD][dE][dD][dK][dD][dE][dK]-NH2; N-terminus and C-terminus assumed), the “resistance to proteolytic cleavage” value in [5] was “resistant to proteolytic cleavage”. Further, the “entry of peptide into cells” value in data set [6] is on record as “readily penetrates neural cells”.
Turning to “CH3-LFVIFLVHFSPGRDEDKDEK-NH2 (Me-LFVIFLVHFSPGRDEDKDEK-NH2) [CPAMC, Cell-penetrable, amphiphilic mini chaperone synthesized with L-amino acids]”, the “Median Lifespan (Days ± SE)” value in [7] (50 μg peptide with E. coli OP50) is 18.23 ± 0.25 days. The “Increase in median survival (%)” value in data set [7] (50 μg peptide, vs control) was 36* %. Further, in data set [8], the “median survival value (50% survival)” value is reported as 8.9 h. For the same compound, the “% increase in survival” value in data set [9] (35° C., 50 μg peptide, vs control) was 31* %; in data set [13] (vs control), 11.6%. For the same compound, the “Median survival ± SE (hours at 35° C.)” value in data set [9] (24 hours 50 μg peptide at 20° C., then 35° C.) was found to be 11.0 ± 0.4 h. Moreover, in data set [10] (25° C.), the “delay of Aβ-induced paralysis” value was “delay of CL4176 worm paralysis compared to controls”. In [10] (25° C., vs control), the “% increase in median survival” value is given as 12%. For the same compound, the “Median survival Hours ± SE” value in data set [10] (2 days at 15° C., then 25° C.) amounted to 49.6 ± 0.5 h. Besides, the “percentage of dead cells with melittin and peptide” value in data set [11] is “blocks the cytotoxic action of melittin”. Moreover, in [12], the “oxidative stress by DCFH-DA staining” value is recorded as “reduce or block the oxidative stress induced by sodium iodate”. Moreover, the “Median survival ± SE (days at 20° C.)” value in data set [13] came to 7.7 ± 0.28 days. In addition, in data set [3], the “hemolysis by melittin in presence of peptide” value was “Hemolysis decreased as concentration of CPAMC increased”. Further, the “IL-6 signaling (STAT3-stimulated SEAP activity)” value in data set [14] is given as “IL-6 signaling is also suppressed”. This compound showed a median survival value in [15] of 7.3 h.
